Experimental data published in ChEMBL document CHEMBL1201862, “PubChem BioAssay data set” (2004).
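96-well plates; 48 h exposure; 5 concentrations. Endpoints by linear interpolation between flanking doses. Not reached: highest tested concentration assigned. Abbreviation: GI50, concentration required for 50% inhibition of growth.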 Active and inactive are the calls of the source. Cut-off read from the data, not from the text of the source: active = GI50 up to about 1.1 µM and inactive = higher.

Key:
Experiment in all cases: growth of human tumour cells (NCI), 48 h
[1] = tested on: RXF 393
[2] = tested on: SW-620
[3] = tested on: Malme-3M
[4] = tested on: MOLT-4
[5] = tested on: CCRF-CEM
[6] = tested on: HOP-92
[7] = tested on: EKVX
[8] = tested on: NCI-H226
[9] = tested on: SK-MEL-28
[10] = tested on: SNB-19
[11] = tested on: NCI-H522
[12] = tested on: RPMI-8226
[13] = tested on: NCI-H460
[14] = tested on: OVCAR-4

Structure (SMILES)	GI50 [1]	GI50 [2]	GI50 [3]	GI50 [4]	GI50 [5]	GI50 [6]	GI50 [7]	GI50 [8]	GI50 [9]	GI50 [10]	GI50 [11]	GI50 [12]	GI50 [13]	GI50 [14]
CC1C[C@@H]2C(=O)NC(=O)[C@@H]2c2c1c1ccccc1n2C (stereo not given in full)	> 100 µM (inactive)	> 100 µM (inactive)	> 100 µM (inactive)	> 100 µM (inactive)	97.9 µM (inactive)	> 100 µM (inactive)	> 100 µM (inactive)	> 100 µM (inactive)	> 100 µM (inactive)	> 100 µM (inactive)	> 100 µM (inactive)	> 100 µM (inactive)	> 100 µM (inactive)	–
C=C1C(=O)c2cc3c(cc2C(c2cc(OC)c(OC)c(OC)c2)[C@@H]1C(=O)O)OCO3 (stereo not given in full)	43.9 µM (inactive)	53.2 µM (inactive)	50.6 µM (inactive)	37.9 µM (inactive)	33 µM (inactive)	15.5 µM (inactive)	> 100 µM (inactive)	> 100 µM (inactive)	69.7 µM (inactive)	–	28.3 µM (inactive)	39.3 µM (inactive)	37.1 µM (inactive)	–
CCN(CC)c1ccc2cc3ccc(N(CC)CC)cc3[o+]c2c1	2.36 µM (inactive)	0.237 µM (active)	1.2 µM (inactive)	0.127 µM (active)	0.0419 µM (active)	0.693 µM (active)	5.5 µM (inactive)	5.62 µM (inactive)	2.56 µM (inactive)	7.8 µM (inactive)	1.69 µM (inactive)	0.305 µM (active)	1.78 µM (inactive)	11.1 µM (inactive)
Cc1nc2ccncc2[nH]1	> 100 µM (inactive)	> 100 µM (inactive)	> 100 µM (inactive)	> 100 µM (inactive)	> 100 µM (inactive)	–	> 100 µM (inactive)	> 100 µM (inactive)	> 100 µM (inactive)	> 100 µM (inactive)	–	–	> 100 µM (inactive)	> 100 µM (inactive)
N#Cc1cccc(N2C(=O)c3ccc(C(=O)c4ccc5c(c4)C(=O)N(c4cccc(C#N)c4)C5=O)cc3C2=O)c1	> 100 µM (inactive)	> 100 µM (inactive)	> 100 µM (inactive)	> 100 µM (inactive)	> 100 µM (inactive)	59 µM (inactive)	> 100 µM (inactive)	> 100 µM (inactive)	–	> 100 µM (inactive)	> 100 µM (inactive)	> 100 µM (inactive)	> 100 µM (inactive)	> 100 µM (inactive)
NC(CCCC(N)P(=O)(O)O)P(=O)(O)O (stereo not given)	> 100 µM (inactive)	> 100 µM (inactive)	> 100 µM (inactive)	> 100 µM (inactive)	> 100 µM (inactive)	64.7 µM (inactive)	> 100 µM (inactive)	> 100 µM (inactive)	> 100 µM (inactive)	–	> 100 µM (inactive)	> 100 µM (inactive)	> 100 µM (inactive)	–
COc1nc(=O)n(COC(CO)CN2C(=O)c3ccccc3C2=O)cc1Cc1cccc(OCc2ccccc2)c1 (stereo not given)	–	42.7 µM (inactive)	–	21.2 µM (inactive)	24.1 µM (inactive)	21 µM (inactive)	33.8 µM (inactive)	17.4 µM (inactive)	17.2 µM (inactive)	29.6 µM (inactive)	–	18.6 µM (inactive)	–	21.8 µM (inactive)
COc1ccc(/C(=N/NC(N)=O)C2(O)C(=O)Nc3ccc([N+](=O)[O-])cc32)cc1 (stereo not given)	–	22.8 µM (inactive)	> 10 µM (inactive)	19.6 µM (inactive)	11.6 µM (inactive)	22.4 µM (inactive)	> 100 µM (inactive)	45.7 µM (inactive)	20 µM (inactive)	> 10 µM (inactive)	21.8 µM (inactive)	25.6 µM (inactive)	19.3 µM (inactive)	13.6 µM (inactive)
C=C=C[P+](c1ccccc1)(c1ccccc1)c1ccccc1	–	–	13.2 µM (inactive)	2.6 µM (inactive)	2.94 µM (inactive)	–	–	–	21.4 µM (inactive)	–	2.24 µM (inactive)	1.55 µM (inactive)	18.2 µM (inactive)	21.9 µM (inactive)
Cc1nc(C(N)=S)sc1C(=O)CC(=O)C(=O)Nc1ccccc1[N+](=O)[O-]	> 100 µM (inactive)	> 100 µM (inactive)	> 100 µM (inactive)	> 100 µM (inactive)	> 100 µM (inactive)	> 100 µM (inactive)	> 100 µM (inactive)	–	> 100 µM (inactive)	> 100 µM (inactive)	> 100 µM (inactive)	> 100 µM (inactive)	> 100 µM (inactive)	> 100 µM (inactive)
O=C1CC(O)(c2ccccc2)C(c2ccccc2)=C1c1ccccc1 (stereo not given)	28.7 µM (inactive)	94.4 µM (inactive)	46 µM (inactive)	25.2 µM (inactive)	30.1 µM (inactive)	17.3 µM (inactive)	40.9 µM (inactive)	–	39.8 µM (inactive)	–	17.7 µM (inactive)	20.7 µM (inactive)	33.2 µM (inactive)	34.1 µM (inactive)
COc1cc2c(cc1OC)C(=O)Cc1ccc(OC)c(OC)c1CN(C)CC2	–	> 100 µM (inactive)	> 100 µM (inactive)	> 100 µM (inactive)	> 100 µM (inactive)	20.5 µM (inactive)	> 100 µM (inactive)	> 100 µM (inactive)	> 100 µM (inactive)	> 100 µM (inactive)	> 100 µM (inactive)	> 100 µM (inactive)	15.6 µM (inactive)	> 100 µM (inactive)
C/C=C(\NC(=O)C(CCCCN)NC(=O)C(C)NC(=O)C1CSC(C)C(NC(=O)C2CSCC(NC(=O)C(C)NC(=O)C(N)C(C)CC)C(=O)NC(CCCCN)C(=O)NC(Cc3ccccc3)C(=O)NC(CC(C)C)C(=O)N2)C(=O)N2CCCC2C(=O)NCC(=O)N1)C(=O)NCC(=O)NC1CSCC2NC(=O)C(Cc3ccc(O)cc3)NC(=O)C(CSC=CNC2=O)NC(=O)C(CC(N)=O)NC(=O)C(Cc2ccccc2)NC1=O (stereo not given)	> 100 µM (inactive)	> 100 µM (inactive)	–	> 100 µM (inactive)	> 100 µM (inactive)	–	52.2 µM (inactive)	–	78.3 µM (inactive)	> 100 µM (inactive)	–	–	75.3 µM (inactive)	> 100 µM (inactive)
CSc1nc2c(nc(C)c(=O)n2C2OCC(OC(C)=O)C(OC(C)=O)C2OC(C)=O)c(=O)[nH]1 (stereo not given)	> 100 µM (inactive)	> 100 µM (inactive)	> 100 µM (inactive)	> 100 µM (inactive)	> 100 µM (inactive)	3.76 µM (inactive)	> 100 µM (inactive)	–	> 100 µM (inactive)	> 100 µM (inactive)	> 100 µM (inactive)	> 100 µM (inactive)	> 100 µM (inactive)	> 100 µM (inactive)
COc1ccc(C2=NN(c3ccccc3)C[N+](c3ccc(OC)cc3)=N2)cc1	26 µM (inactive)	24.5 µM (inactive)	21.2 µM (inactive)	20.3 µM (inactive)	23.2 µM (inactive)	–	33.8 µM (inactive)	15.7 µM (inactive)	26.9 µM (inactive)	28.4 µM (inactive)	15.1 µM (inactive)	23.2 µM (inactive)	47.5 µM (inactive)	18.6 µM (inactive)
CCOC(=O)Cn1c(=O)n(C)c(=O)c2[nH]cnc21	–	> 100 µM (inactive)	> 100 µM (inactive)	> 100 µM (inactive)	> 100 µM (inactive)	> 100 µM (inactive)	> 100 µM (inactive)	–	> 100 µM (inactive)	> 100 µM (inactive)	> 100 µM (inactive)	> 100 µM (inactive)	> 100 µM (inactive)	–
COc1ccccc1/C=C1\C(=O)N(C(=O)Cc2ccccc2)N=C1C	–	> 100 µM (inactive)	> 100 µM (inactive)	> 100 µM (inactive)	> 100 µM (inactive)	–	> 100 µM (inactive)	> 100 µM (inactive)	> 100 µM (inactive)	> 100 µM (inactive)	> 100 µM (inactive)	> 100 µM (inactive)	> 100 µM (inactive)	> 100 µM (inactive)
CN(C)[C@@H]1C(O)=C(C(N)=O)C(=O)[C@@]2(O)C(O)=C3C(=O)c4c(O)cccc4C[C@H]3C[C@@H]12	1.69 µM (inactive)	3.11 µM (inactive)	1.51 µM (inactive)	2.45 µM (inactive)	2.37 µM (inactive)	2.26 µM (inactive)	–	–	1.77 µM (inactive)	1.97 µM (inactive)	2.13 µM (inactive)	2.17 µM (inactive)	2.18 µM (inactive)	1.68 µM (inactive)
CC12CCC(=O)N1[C@@H](c1ccccc1)[C@@H](c1ccccc1)O2 (stereo not given in full)	–	> 100 µM (inactive)	> 100 µM (inactive)	> 100 µM (inactive)	> 100 µM (inactive)	84.7 µM (inactive)	–	> 100 µM (inactive)	–	> 100 µM (inactive)	> 100 µM (inactive)	–	> 100 µM (inactive)	> 100 µM (inactive)
O=C(c1ccc(NCN2C(=O)CCC2=O)cc1)c1ccc(NCN2C(=O)CCC2=O)cc1	> 100 µM (inactive)	58.5 µM (inactive)	> 100 µM (inactive)	> 100 µM (inactive)	> 100 µM (inactive)	> 100 µM (inactive)	> 100 µM (inactive)	–	> 100 µM (inactive)	> 100 µM (inactive)	> 100 µM (inactive)	20.4 µM (inactive)	> 100 µM (inactive)	> 100 µM (inactive)
COC(=O)c1ccc(CS(=O)(=O)c2ccccc2)cc1	> 100 µM (inactive)	45.1 µM (inactive)	> 100 µM (inactive)	> 100 µM (inactive)	> 100 µM (inactive)	> 100 µM (inactive)	> 100 µM (inactive)	> 100 µM (inactive)	> 100 µM (inactive)	> 100 µM (inactive)	–	> 100 µM (inactive)	66.1 µM (inactive)	> 100 µM (inactive)
